Data published in PubChem BioAssay AID2060606 (Molecular Pharmacology Branch, DTP, NCI, 2025).

Tested on: 922993-354-T-J3-PDC complex spheroids, viability, % test/control
Assay: Anticancer human tumor 922993-354-T-J3-PDC patient-derived endometrial carcinoma cell line growth inhibition [CLK]
Details: for IC50: curve of first compound; for viability, T/C: stronger effect = lower value
Text: A high-throughput screen of multi-cell type tumor spheroids was designed to identify active combinations of […] and targeted small molecules. Complex spheroids include a stromal component modeled by human endothelial cells (HUVEC) and fibroblasts modeled by human mesenchymal stem cells (MSCs). The concentration ranges selected for each drug and investigational agent were based upon clinically achievable concentrations if the clinical Cmax of the agent was known.
Compounds. The drugs and investigational agents: cirtuvivint (SM08502; NSC835563), CC-671 (NSC850746), vemurafenib (NSC761431), tapotoclax (NSC804041), sotorasib (NSC818433), adagrasib (NSC831453), MRTX-1133 (NSC836407), BAY2416964 (NSC825713), copanlisib (NSC816437), inavolisib (NSC800729), abemaciclib (NSC768073), osimertinib (NSC779217), entinostat (NSC756642), eltanexor (KPT-8602, NSC794443), venetoclax (NSC766270), ceralasertib (NSC777638), bortezomib (NSC756655), olaparib (NSC753686), talazoparib (NSC767125), alisertib (NSC759677), peposertib (NSC802822), gemcitabine (NSC613327), 5-fluorouracil (NSC19893), SN-38 (NSC673596), oxaliplatin (NSC266046), paclitaxel (NSC125973), and doxorubicin (NSC123127), were obtained from the National Cancer Institute (NCI) Developmental Therapeutics Program Chemical Repository. The FDA-approved anticancer drug set is available from the Developmental Therapeutics Program at https://dtp.cancer.gov/organization/dscb/obtaining/available plates.htm. […] The stock solutions were prepared in dimethyl sulfoxide (DMSO, Sigma-Aldrich, St. Louis, MO, cat. D2650), except for the platinum complexes which were prepared in saline (Quality Biological, Gaithersburg, MD, cat. 114-055-101), at 800-fold the tested concentration and stored at -70 degrees C prior to their use. All drugs and investigational agents were tested over a range starting from a high concentration at or near the clinical Cmax and decreasing in half-log increments. If the clinical Cmax for an agent had not been determined, the highest concentration tested was 10 microM.
Cell Culture. All cells were maintained in an incubator at 37 degrees C and 5% CO2 with 95% humidity. The PDC lines were cultured according to standard operating procedures established by the NCI PDMR. Briefly, all PDCs were thawed and cultured in Matrigel-coated flasks prepared with a working solution of 1X Ham's F-12 nutrient mix, without supplementation (Invitrogen, Waltham, MA, cat. 11765054), 100 U/mL penicillin-streptomycin (Invitrogen, cat. 15140122), and 2.5% Matrigel (Corning Inc., Corning, NY, cat. 354248) for the first three passages. The 947758-054-R-J2-PDC line was cultured in 6B/Colon 1A media, which includes advanced DMEM/F-12 (Thermo Fisher Scientific, cat. 12634028), 10 mM HEPES (Thermo Fisher Scientific, cat. 15630080), 1X GlutaMAX supplement (Thermo Fisher Scientific, cat. 35050061), 0.1 mg/mL primocin (InvivoGen, cat. ant-pm-2), 10% defined fetal bovine serum, heat inactivated (HyClone Laboratories Inc., cat. SH30070.03HI), 1.25 mM N-Acetyl-L-cysteine (Sigma-Aldrich, cat. A9165), 10 mM nicotinamide (Sigma-Aldrich, cat. N0636), 1X B-27 supplement (Thermo Fisher Scientific, cat. 17504044), 1X N-2 supplement (Thermo Fisher Scientific, cat. 17502048), and 10 microM Y-27632 dihydrochloride (Tocris Bioscience, cat. 1254). The 876862-298-R-J1-PDC was cultured in 6E media, which includes all 6B/Colon 1A media components plus 50% L-WRN conditioned media (ATCC, cat. CRL-3276), 50 ng/mL recombinant human EGF recombinant protein (hEGF; Thermo Fisher Scientific, cat. PHG0311), 10 ng/mL recombinant human fibroblast growth factor 10 (hGFG-10; PeproTech, cat. 100-26), 1 ng/mL recombinant human fibroblast growth factor 2 (hFGF-2; PeproTech, cat. 100-18B), and 1 µM prostaglandin E2 (PGE2; Tocris, cat. 2296). The 227483-062-R1-J1-PDC line was cultured in Panc media, containing all 6E components except hFGF-2, with the addition of 500 nM SB-431542 (Selleckchem, cat. S1067) and 10 nM gastrin (Tocris, cat. 3006). […]
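Also: spheroids exposed to the agents for 7 days before readout.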

## C#Cc1c(F)ccc2cc(O)cc(-c3ncc4c(N5CC6CCC(C5)N6)nc(OCC56CCCN5CC(F)C6)nc4c3F)c12 (configuration not stated) + CN1CCN(c2cc(C(=O)Nc3cc4cc(-c5cnn(C)c5)ccc4cn3)ccn2)CC1
Second compound 0.0316 µM
  IC50: > 10000 nM
Second compound 0.1 µM
  IC50: > 10000 nM
Second compound 0.316 µM
  IC50: 56.8 nM
Second compound 1 µM
  IC50: < 31.6 nM
Second compound 3.16 µM
  IC50: < 31.6 nM
Second compound 10 µM
  IC50: < 31.6 nM
Second compound 0.0316 µM, first compound 0.0316 µM
  viability, T/C: 123%
Second compound 0.0316 µM, first compound 0.1 µM
  viability, T/C: 113%
Second compound 0.0316 µM, first compound 0.316 µM
  viability, T/C: 122%
Second compound 0.0316 µM, first compound 1 µM
  viability, T/C: 107%
Second compound 0.0316 µM, first compound 3.16 µM
  viability, T/C: 111%
Second compound 0.0316 µM, first compound 10 µM
  viability, T/C: 93.3%
Second compound 0.1 µM, first compound 0.0316 µM
  viability, T/C: 99.5%
Second compound 0.1 µM, first compound 0.1 µM
  viability, T/C: 105%
Second compound 0.1 µM, first compound 0.316 µM
  viability, T/C: 91.9%
Second compound 0.1 µM, first compound 1 µM
  viability, T/C: 92.4%
Second compound 0.1 µM, first compound 3.16 µM
  viability, T/C: 103%
Second compound 0.1 µM, first compound 10 µM
  viability, T/C: 88%
Second compound 0.316 µM, first compound 0.0316 µM
  viability, T/C: 57%
Second compound 0.316 µM, first compound 0.1 µM
  viability, T/C: 47.9%
Second compound 0.316 µM, first compound 0.316 µM
  viability, T/C: 38.6%
Second compound 0.316 µM, first compound 1 µM
  viability, T/C: 42.1%
Second compound 0.316 µM, first compound 3.16 µM
  viability, T/C: 41.4%
Second compound 0.316 µM, first compound 10 µM
  viability, T/C: 41.3%
Second compound 1 µM, first compound 0.0316 µM
  viability, T/C: 0.17%
Second compound 1 µM, first compound 0.1 µM
  viability, T/C: 0.42%
Second compound 1 µM, first compound 0.316 µM
  viability, T/C: 1.47%
Second compound 1 µM, first compound 1 µM
  viability, T/C: 0.44%
Second compound 1 µM, first compound 3.16 µM
  viability, T/C: 0.92%
Second compound 1 µM, first compound 10 µM
  viability, T/C: 0.14%
Second compound 3.16 µM, first compound 0.0316 µM
  viability, T/C: 0.14%
Second compound 3.16 µM, first compound 0.1 µM
  viability, T/C: 0.2%
Second compound 3.16 µM, first compound 0.316 µM
  viability, T/C: 0.11%
Second compound 3.16 µM, first compound 1 µM
  viability, T/C: 0.11%
Second compound 3.16 µM, first compound 3.16 µM
  viability, T/C: 2.16%
Second compound 3.16 µM, first compound 10 µM
  viability, T/C: 2.87%
Second compound 10 µM, first compound 0.0316 µM
  viability, T/C: 0.88%
Second compound 10 µM, first compound 0.1 µM
  viability, T/C: 0.85%
Second compound 10 µM, first compound 0.316 µM
  viability, T/C: 1.6%
Second compound 10 µM, first compound 1 µM
  viability, T/C: 0.15%
Second compound 10 µM, first compound 3.16 µM
  viability, T/C: 2.52%
Second compound 10 µM, first compound 10 µM
  viability, T/C: 3.71%
